According to patent US9487538B2, “Two-carbon linked artemisinin-derived trioxane dimers” (THE JOHNS HOPKINS UNIVERSITY, priority 2013, dated 2016):

How the values were obtained:
P. berghei ANKA strain = experiment: animal or person; type: in vivo; conditions: for average survival time of all mice receiving the compound: over both experiments, artemether: combination therapy groups
Experimental: Nearly all of the two-carbon linked dimer analogs were evaluated in Plasmodium berghei infected mice using a 60-day survival study. Each trioxane (0.64 mg) and mefloquine hydrochloride (1.92 mg) were dissolved in 100 μL of 7:3 Tween:EtOH mixture, and the mixture was further diluted with 965 μL of water (total volume of 1065 μL). Twenty-four hours after infection with P. berghei ANKA strain (2×10^7 parasitized erythrocytes), each of four 5-week old C57BL/6J mice (Jackson Laboratory, weighing approximately 20 g each) received 200 μL of the trioxane solution via oral gavage, corresponding to a dose of 6 mg/kg of trioxane and 18 mg/kg of mefloquine hydrochloride. Blood parasitemia levels and duration of animal survival as compared to survival time of animals receiving no drug were monitored, both being widely accepted measures of a drug's antimalarial efficacy.
A second mouse experiment was initiated to further evaluate several of the lead compounds. An alternative adjuvant to establish a broader understanding of the efficacy of these compounds also was evaluated. […] As summarized in Table 2, all of the lead compounds outperformed the drug artemether (4b), which prolonged survival to an average of 38.5 days and 19.0 days in combination with mefloquine and lumefantrine, respectively. One mouse receiving dimer methyl oxime Z-29 and mefloquine died early in the experiment (day 16) while the other three lived to day 60, an average of 49.0 days. Dimer methyl oxime Z-29 was, however, was marginally effective in combination with lumefantrine (26.3 day average) and not effective as a monotherapy, with an average survival time (8.3 days) similar to that of infected mice receiving no drug (8.8 days). Dimer allyl oxime 30 was efficacious in all three groups, extending survival time to 49.0 days, 41.3 days, and 46.8 days in combination with mefloquine, lumefantrine, or as a monotherapy, respectively. […] One mouse receiving mefloquine combination died at an extended time point (35 days) while the other three survived the entire 60 days, an average of 53.8 days. All four mice receiving lumefantrine combination survived the entire 60 days. […] The monotherapy dose prolonged survival time to 46.8 days, similar to that of dimer allyl oxime 30.

P388 leukemia = conditions: NCI Report, tested on 25 Oct. 1983; cited from earlier work
[1] = test system: cell line panels consisting of 60 lines (nine disease-related subpanels); conditions: 60 cell lines; cited from earlier work
[2] = Table 1, trioxane 6 mg/kg + Mef-HCl 18 mg/kg, single oral dose
[3] = Table 1, trioxane 6 mg/kg + Mef-HCl 18 mg/kg, determined on day 3 post infection
[4] = Table 2, trioxane 6 mg/kg + lumefantrine 18 mg/kg
[5] = Table 2, trioxane 6 mg/kg + mefloquine 18 mg/kg
[6] = Table 2, trioxane 150 mg/kg, adjuvant none (monotherapy)
[7] = first experiment, trioxane 6 mg/kg + mefloquine hydrochloride 18 mg/kg, four mice

SMILES	survival after infection avg (P. berghei ANKA strain; [2]) [days]	% parasitemia suppression (P. berghei ANKA strain; [3]) [%]	% parasitemia suppression (P. berghei ANKA strain; [5]) [%]	survival after infection avg (P. berghei ANKA strain; [5]) [days]	other results
CO[C@H]1O[C@H](/C(C[C@H]2O[C@H](OC)[C@@]34OC(C)C3C(C)C[C@H]4[C@H]2C)=N\O)[C@H](C)[C@@H]2CC(C)C3C(C)O[C@@]312 (stereo partly drawn) [compound 28, Dimer Oxime]	52.5	>99.9			
CO[C@H]1O[C@@H]2O[C@@]3(C)CC[C@H]4[C@H](C)CC[C@@H]([C@H]1C)[C@@]24OO3 [artemether (4b), artemether, reference compound]	40.0	>99.9	>99.9	38.5	% parasitemia suppression (P. berghei ANKA strain; [4]): >99.9%; survival after infection avg (P. berghei ANKA strain; [4]): 19.0 days; average survival time of all mice receiving the compound (P. berghei ANKA strain): 31.7 days
CC(=O)O/N=C(/C[C@H]1O[C@@H]2O[C@@]3(C)CC[C@H]4[C@H](C)CC[C@@H]([C@H]1C)[C@@]24OO3)[C@H]1O[C@@H]2O[C@@]3(C)CC[C@H]4[C@H](C)CC[C@@H]([C@H]1C)[C@@]24OO3 [compound 36, dimer oxime acetate]	27.3	>99.9			
C[C@H]1[C@@H](/C(C[C@H]2O[C@@H]3O[C@@]4(C)CC[C@H]5[C@H](C)CC[C@@H]([C@H]2C)[C@@]35OO4)=N\OC(=O)N(C)C)O[C@@H]2O[C@@]3(C)CC[C@H]4[C@H](C)CC[C@@H]1[C@@]24OO3 [compound 35, dimer oxime dimethylcarbamate]	51.8	>99.9			
CO/N=C(/C[C@H]1O[C@H](OC)[C@@]23OC(C)C2C(C)C[C@H]3[C@H]1C)[C@H]1O[C@H](OC)[C@@]23OC(C)C2C(C)C[C@H]3[C@H]1C (stereo partly drawn) [Z-29, Dimer O-Methyl Oxime]	60.0	>99.9	>99.9	49.0	inhibition in vivo at 150 mg/kg (P. berghei ANKA strain; Plasmodium berghei, in Mus musculus, po, Table 2, trioxane 150 mg/kg, adjuvant none (monotherapy), read-out: % parasitemia suppression): 98%; % parasitemia suppression (P. berghei ANKA strain; [4]): >99.9%; survival after infection avg (P. berghei ANKA strain; [4]): 26.3 days; survival after infection avg (P. berghei ANKA strain; [6]): 8.3 days; cure of mice (P. berghei ANKA strain; [7]): complete cures of all four mice
C[C@@H]1CC[C@H]2[C@@H](C)C(=O)O[C@@H]3O[C@@]4(C)CC[C@@H]1[C@]32OO4 [artemisinin]					activity against P388 leukemia (P388 leukemia): inactive; anticancer activity [1]: modest anticancer activity
C[C@H]1[C@@H](/C(C[C@H]2O[C@@H]3O[C@@]4(C)CC[C@H]5[C@H](C)CC[C@@H]([C@H]2C)[C@@]35OO4)=N\OC(C)(C)C)O[C@@H]2O[C@@]3(C)CC[C@H]4[C@H](C)CC[C@@H]1[C@@]24OO3 [compound 33, dimer tert-butyl oxime]			>99.9	23.8	
C[C@H]1[C@@H](/C(C[C@H]2O[C@@H]3O[C@@]4(C)CC[C@H]5[C@H](C)CC[C@@H]([C@H]2C)[C@@]35OO4)=N\OCC2CC2)O[C@@H]2O[C@@]3(C)CC[C@H]4[C@H](C)CC[C@@H]1[C@@]24OO3 [compound 31, dimer O-methylcyclopropyl oxime]			>99.9	41	
CO/N=C(\C[C@H]1O[C@H](OC)[C@@]23OC(C)C2C(C)C[C@H]3[C@H]1C)[C@H]1O[C@H](OC)[C@@]23OC(C)C2C(C)C[C@H]3[C@H]1C (stereo partly drawn) [E-29, Dimer O-Methyl Oxime]			>99.9	37.0	
C#CCO/N=C(/C[C@H]1O[C@@H]2O[C@@]3(C)CC[C@H]4[C@H](C)CC[C@@H]([C@H]1C)[C@@]24OO3)[C@H]1O[C@@H]2O[C@@]3(C)CC[C@H]4[C@H](C)CC[C@@H]([C@H]1C)[C@@]24OO3 [compound 34, dimer propargyl oxime]	60.0	>99.9	>99.9	53.8	inhibition in vivo at 6 mg/kg (P. berghei ANKA strain; Plasmodium berghei, in Mus musculus, po, Table 2, as printed: trioxane 6 mg/kg, adjuvant none, dose 18, read-out: % parasitemia suppression): > 99.9%; survival after infection avg (P. berghei ANKA strain; Table 2, as printed: trioxane 6 mg/kg, adjuvant none, dose 18): 46.8 days; % parasitemia suppression (P. berghei ANKA strain; [4]): >99.9%; survival after infection avg (P. berghei ANKA strain; [4]): 60.0 days; survival after infection (P. berghei ANKA strain; Table 2, trioxane 6 mg/kg + lumefantrine 18 mg/kg, single oral dose): 60 days; survival after infection avg (P. berghei ANKA strain; [6]): 46.8 days; cure of mice (P. berghei ANKA strain; [7]): complete cures of all four mice; average survival time of all mice receiving the compound (P. berghei ANKA strain): 55.1 days; cure of mice (P. berghei ANKA strain; two separate experiments, in combination with two different adjuvants (mefloquine and lumefantrine)): complete cure
C[C@H]1[C@@H](C(=O)C[C@H]2O[C@@H]3O[C@]4(C)CC[C@H]5[C@H](C)CC[C@@H]([C@H]2C)[C@@]35OO4)O[C@@H]2O[C@]3(C)CC[C@H]4[C@H](C)CC[C@@H]1[C@@]24OO3 [compound 24, Artemisinin Two-Carbon Linked Dimer Ketone]	48.3	>99.9			
